Laboratory results taken from PMC5154303, “Flavonol and imidazole derivatives block HPV16 E6 activities and reactivate apoptotic pathways in HPV^+ cells” (Cell Death & Disease, 2016).

Assays:
Format in all cases: cell-based, human
[1] = system: p53; assay: p53 ELISA in C33A cells; settings: C33A cells (HPV−, mutant p53), with 4 μg/ml mitomycin C, 24 h
Experimental: Figure 6 Treatment with myricetin and spinacine (5) increases cellular levels of caspase 8 and p53. (a) SiHa cells (1 × 10^6 per well) were seeded into a six-well plate and allowed to incubate overnight. The indicated concentrations of myricetin and spinacine were added, and then cells were incubated for 24 h. Cells were then washed in 1 × PBS and then harvested, and the resulting level of caspase 8 was measured by immunoblot. (b) SiHa and C33A cells (1 × 10^6 per well) were seeded into a six-well plate and allowed to incubate overnight. In all, 200 μM of myricetin and 100 μM spinacine were added together with 4 μg/ml mitomycin C and incubated for 24 h. The resulting level of p53 was measured by enzyme-linked immunosorbent assay, and the level of p53 found in untreated cells was set at 100%. Experiments were performed in triplicate, and error bars indicate the S.D.
The p53 ELISA was performed as described previously,[26] with some modifications. Antibodies secreted by clone pAb122 (hybridoma obtained from ATCC, antibodies purified from the culture medium using protein-A Sepharose) were used as monoclonal capture antibodies. […] The average and S.D. of the replicates (a minimum of three) were calculated, normalized to the control, and used to prepare the graph.

[2] = system: SiHa cells; assay: TRAIL-induced apoptosis in SiHa cells (MTT); settings: for viability at 125 µM / EC50: Homo sapiens; for viability at 125 µM: SiHa, 125 μM compound, TRAIL 100 ng/ml + cycloheximide 5 μg/ml, cells without small molecule = 100%, read-out: viability of SiHa cells in the presence of TRAIL; for EC50 / increase in cell death in the presence versus absence of TRAIL: SiHa cells; for EC50: compound 4 h prior to TRAIL 100 ng/ml + cycloheximide 5 μg/ml, overnight, MTT; for increase in cell death in the presence versus absence of TRAIL: from the EC50 values of Table 2
Experimental: (§1) Figure 3 (a) HPV^+ SiHa cells are resistant to TRAIL-induced apoptosis as compared with the human osteosarcoma cell line U2OS. Cells (2 × 10^4 cells per well) were seeded into a 96-well plate, allowed to incubate overnight, and then treated with the indicated concentration of TRAIL in the presence of cycloheximide (5 μg/ml). The viability of cells was measured after overnight incubation using the MTT assay; the viability of cells untreated with TRAIL was set at 100% for each group. (b) The indicated concentrations of three small molecules were added to SiHa cells, and an MTT assay was preformed after overnight incubation. The viability of cells untreated with small molecules was set as 100%. (c) The indicated concentrations of myricetin or spinacine were added 4 h prior to TRAIL (100 ng/ml) in the presence of cycloheximide (5 μg/ml) and incubated at 37 °C overnight. The viability of cells untreated with small molecules was set at 100%. (d and e) SiHa cells (2 × 10^4 cells per well) were seeded into a 96-well plate and allowed to incubate overnight. In all, 100 μM of myricetin and 50 μM of spinacine were added 4 h prior to either (d) doxorubicin or (e) cisplatin. Cell viability was measured after overnight incubation using the MTT assay, and the viability of cells untreated with either myricetin or spinacine was set at 100%. Experiments were performed in triplicate, and error bars indicate the S.D.
Figure 5 Myricetin and spinacine (5) can re-sensitize HPV^+, but not HPV^−, cells to treatment with TRAIL. SiHa (2 × 10^4 cells per well) and C33A cells (1 × 10^4 cells per well) were seeded into a 96-well plate and allowed to incubate overnight, and then cells were pretreated in the presence or absence of (a) myricetin (100 μM) or (b) spinacine (50 μM) for 4 h. The indicated concentration of TRAIL along with cycloheximide (5 μg/ml) was added, and the cells were allowed to incubate overnight. Cell viability was measured by MTT assay, and the viability of cells untreated with TRAIL was set at 100%. Experiments were performed in triplicate, and error bars indicate the S.D.
The extracellular domain of human TRAIL was cloned into a pTriEx expression plasmid containing N-terminal Hisx6 tag. His-TRAIL was expressed in the E. coli BL-21 pLys strain and purified as previously described. Doxorubicin and cisplatin were purchased from Sigma. His-TRAIL, doxorubicin, and cisplatin were diluted in PBS to the desired concentration before using. To measure cell survival following treatment with TRAIL, cisplatin and doxorubicin, SiHa (2 × 10^4/well), C33A (1 × 10^4/well), and HNSCC cells (2 × 10^4/well) were seeded into 96-well plates and allowed to adhere overnight. Small molecules at the desired concentration were added and incubated at 37 °C for 4 h. As indicated, TRAIL, cisplatin, or doxorubicin was then added. The TRAIL treatment group contained cycloheximide (5 μg/ml) to inhibit de novo protein synthesis, and the cells were incubated for 16 h prior to measuring cell viability by the MTT assay preformed as described previously.[38] All experiments were repeated at least three times (three biological replicates, carried out on different days), with each experimental group measured in triplicate within each of these individual experiments. Data presented are from a representative experiment.

[3] = system: SiHa cells; assay: Sensitization of SiHa cells to cisplatin (MTT); settings: 100 μM myricetin or 50 μM spinacine 4 h prior to cisplatin, versus negative control
Experimental: as §1, with “The viability of cells untreated with small molecules was set at 100%. (d and e) SiHa cells (2 × 10^4 cells per well) were seeded into a 96-well plate and allowed to incubate overnight. In all, 100 μM of myricetin and 50 μM of spinacine were added 4 h prior to either (d) doxorubicin or (e) cisplatin.” left out, “Experiments were performed in triplicate, and error bars indicate the S.D.” left out
The extracellular domain of human TRAIL was cloned into a pTriEx expression plasmid containing N-terminal Hisx6 tag. […] All experiments were repeated at least three times (three biological replicates, carried out on different days), with each experimental group measured in triplicate within each of these individual experiments. […]

| SMILES | change in p53 levels ([1]; 100 μM) | viability at 125 µM [2] [%] | EC50 [2] [µM] | increase in cell death in the presence versus absence of TRAIL [2] [fold] | sensitivity of SiHa cells to cisplatin [3] | change in p53 levels ([1]; 200 μM) | sensitivity of SiHa cells to TRAIL ([2]; 100 μM myricetin pretreatment 4 h, TRAIL up to 100 ng/ml + cycloheximide) |
| --- | --- | --- | --- | --- | --- | --- | --- |
| O=C(O)C1Cc2[nH]cnc2CN1 (centres unmarked) [Spinacine (5), 4,5,6,7-tetrahydro-1H-imidazo[4,5–c]pyridine-6-carboxylic acid] | no significant change | 30 to 40 | 31.3 | 8.6 | increased the sensitivity | – | – |
| O=c1c(O)c(-c2cc(O)c(O)c(O)c2)oc2cc(O)cc(O)c12 [Myricetin, myricetin, reference compound] | – | 30 to 40 | 155 | 3.5 | increased the sensitivity | no significant change | increased dramatically |
